Where no end group is shown, it is not given here.
Columns and labels:
Assay type in all cases: cell-based
NIH3T3 fibroblasts = test: SRB colorimetric assay, growth of NIH3T3 fibroblasts; details: NIH3T3, 10 ng/ml or 1,000 ng/ml, 72 hr, serum-free medium, absorbance at 590 nm, FIG. 3b
Description: (§1) In order to evaluate four peptides prepared in Preparation Examples 1-2 whether they have similar activities of growth factor-1, SRB (Sulforhodamine B; Sigma-Aldrich) colorimetric assay was carried out using HaCaT keratinocytes and NIH3T3 fibroblasts according to Rizzino et al. method (Rizzino, et al. Cancer Res., 48: 4266 (1988)).
HaCaT keratinocytes (The Korean Cell Line Bank) and NIH3T3 fibroblasts (The Korean Cell Line Bank) were cultured in 250 ml-flasks containing EMEM (Eagle's minimal essential media; Gibco, U.S.A.) supplemented with 10% FBS (fetal bovine serum). Cells cultured were treated with 0.25% trypsin solution to detach cells from the bottom of culture flasks and centrifuged to collect cell pellets. After cells were resuspended in EMEM not containing FBS, its aliquot (4×10^3 cells)was added to each well of 96-well plates and cultured under 7% CO2 for 24 hr at 37° C. After 24-hr culture, the medium was changed with a fresh medium not containing serum and cells were incubated with human aFGF (NIBSC, UK) or four peptides synthesized (10 ng/ml or 1,000 ng/ml) dissolved in water and 10% DMSO for 72 hr under the same conditions as described above. After removing supernatants, cells were washed once using PBS (phosphate buffered saline) and incubated with SRB solution. […] In addition, absorbance at 590 nm was measured to analyze cell proliferation. […]

fibronectin = test: Fibronectin ELISA in HaCaT keratinocytes; details: HaCaT incubated with peptides for 72 hr, FIG. 5b
Description: (§2) HaCaT keratinocytes cultured for 48 hr were incubated with the peptides of the present invention for 72 hr. The levels of procollagen and fibronectin, indicators to show the improvement in skin wrinkle, were examined. The quantification was performed using Procollagen ELISA kit (Takara, Japan) and Fibronectin ELISA kit (CHEMICON, USA).

HaCaT keratinocytes = test: SRB colorimetric assay, growth of HaCaT keratinocytes; details: 10 ng/ml or 1,000 ng/ml, 72 hr, serum-free medium, absorbance at 590 nm, FIG. 3a
Description: as §1
HaCaT keratinocytes (The Korean Cell Line Bank) and NIH3T3 fibroblasts (The Korean Cell Line Bank) were cultured in 250 ml-flasks containing EMEM (Eagle's minimal essential media; Gibco, U.S.A.) supplemented with 10% FBS (fetal bovine serum). Cells cultured were treated with 0.25% trypsin solution to detach cells from the bottom of culture flasks and centrifuged to collect cell pellets. After cells were resuspended in EMEM not containing FBS, its aliquot (4×10^3 cells)was added to each well of 96-well plates and cultured under 7% CO2 for 24 hr at 37° C. After 24-hr culture, the medium was changed with a fresh medium not containing serum and cells were incubated with human aFGF (NIBSC, UK) or four peptides synthesized (10 ng/ml or 1,000 ng/ml) dissolved in water and 10% DMSO for 72 hr under the same conditions as described above. After removing supernatants, cells were washed once using PBS (phosphate buffered saline) and incubated with SRB solution. Cells were sufficiently washed with PBS and observed under a microscope to find cell viability. In addition, absorbance at 590 nm was measured to analyze cell proliferation.
FIG. 3a and FIG. 3b represent the analysis data for growth of keratinocytes and fibroblasts, respectively. FIG. 4 represents the growth pattern of keratinocytes and fibroblasts observed under microscope after 72 hr-treatment with peptides.

procollagen = test: Procollagen ELISA in HaCaT keratinocytes; details: HaCaT incubated with peptides for 72 hr, FIG. 5a
Description: as §2

Row | Substance | growth of fibroblasts (NIH3T3 fibroblasts) | level of fibronectin in keratinocytes (fibronectin) | growth of keratinocytes (HaCaT keratinocytes) | level of procollagen in keratinocytes (procollagen)
1 | Ac-YKSKKGGWTH [peptide 1] | excellent effects on growth of fibroblasts | strikingly facilitate the production of procollagen | much better effects on growth of keratinocytes | 
2 | DSHTQYCFHGT [compound 3, corresponds to amino acids 10-20 of TGF-α] |  |  | much better effects on growth of keratinocytes | 
3 | GYVGVRCEAADLDA [compound 4, corresponds to amino acids 38-49 of TGF-α] |  | strikingly facilitate the production of procollagen | much better effects on growth of keratinocytes | 
4 | YISKKHAGKNWF [corresponds to amino acids 111-122 of aFGF] | excellent effects on growth of fibroblasts |  |  | remarkably promote the production of procollagen

— patent US8501689B2, “Growth factor-mimicking peptides and uses thereof” (Caragen Co., Ltd., priority 2008, dated 2013)
